Measured values taken from ChEMBL document CHEMBL3227967, “Quantitative structure-activity relationships in 1-aryl-2-(alkylamino)ethanol antimalarials” (J Med Chem, 1979).

tested on: Plasmodium berghei; experiment: Antimalarial activity against Plasmodium berghei; format: functional

| SMILES | log(1/C) |
| --- | --- |
| CCCCN(CCCC)CC(O)c1cc(C(F)(F)c2ccccc2)nc2c(Cl)cc(Cl)cc12 (stereo not drawn) | 2.61 |
| CCCCCNCC(O)c1cc(-c2ccc(C(F)(F)F)cc2)nc(-c2ccc(C(F)(F)F)cc2)c1 (stereo not drawn) | 4.17 |
| OC(CC1CCCCN1)c1cc2cccc(C(F)(F)F)c2c2ccccc12 (stereo not drawn) | 3.62 |
| CCCCCCCN(CCCCCCC)CC(O)c1ccc(Cl)c2cc3cccc(Cl)c3cc12 (stereo not drawn) | 3.56 |
| CCCNCC(O)c1cc(C(F)(F)F)nc2c(C(F)(F)F)cccc12 (stereo not drawn) | 2.92 |
| CCCCN(CCCC)CC(O)c1cc(C23CC4CC(CC(C4)C2)C3)nc2c(Cl)cc(Cl)cc12 (stereo not drawn) | 3.29 |
| OC(CC1CCCCN1)c1cc(-c2ccc(Cl)cc2)nc(-c2ccc(Cl)cc2)c1 (stereo not drawn) | 3.83 |
| CCCN(CCC)CC(O)c1cc2cc(Br)ccc2c2cc(Br)ccc12 (stereo not drawn) | 4.27 |
| CCCCN(CCCC)CC(O)c1cc2ccc(F)cc2c2ccccc12 (stereo not drawn) | 2.43 |
| CCCCN(CCCC)CC(O)c1cc(/C=C/c2ccc(Cl)cc2)nc(C23CC4CC(CC(C4)C2)C3)c1 (stereo not drawn) | 2.72 |
| CCCCN(CCCC)CC(O)c1cc(C(=O)c2cccc(Cl)c2)nc2c(Cl)cc(Cl)cc12 (stereo not drawn) | 4.48 |
| OC(CC1CCCCN1)c1cc2cc(C(F)(F)F)cc(C(F)(F)F)c2c2cc(Cl)c(Cl)cc12 (stereo not drawn) | 4.47 |
| CS(=O)(=O)c1ccc2cc(C(O)CC3CCCCN3)c3ccc(C(F)(F)F)cc3c2c1 (stereo not drawn) | 3.32 |
| CCCCN(CCCC)CC(O)c1c2cccc(Cl)c2cc2c(Cl)cccc12 (stereo not drawn) | 2.76 |
| OC(CNCc1ccccc1)c1cc(-c2ccc(Cl)c(Cl)c2)nc2c(Cl)cc(Cl)cc12 (stereo not drawn) | 3.66 |
| CCCCCCCN(CCCCCCC)CC(O)c1cc2ccc(Cl)cc2c2cc(OC)ccc12 (stereo not drawn) | 2.98 |
| CCCCN(CCCC)CC(O)c1cc(-c2ccc(Cl)cc2)nc(-c2ccc(Cl)cc2)c1 (stereo not drawn) | 3.84 |
| CCCN(CCC)CC(O)c1cc2ccc(C(F)(F)F)cc2c2cc(C(F)(F)F)ccc12 (stereo not drawn) | 3.92 |
| CCCCN(CCCC)CC(O)c1cc(-c2ccc(Cl)cc2)nc(-c2ccc(Br)cc2)c1 (stereo not drawn) | 3.36 |
| CCCCCCN(CCCCCC)CC(O)c1cc(-c2ccc(Cl)cc2)nc2c(C)c(Cl)ccc12 (stereo not drawn) | 3.85 |
| CCNCC(O)c1cc(-c2ccc(C(F)(F)F)cc2)nc(-c2ccc(C(F)(F)F)cc2)c1 (stereo not drawn) | 3.72 |
| CCCCN(CCCC)CC(O)c1cc2ccccc2c2cc(Cl)ccc12 (stereo not drawn) | 2.77 |
| CCCCN(CCCC)CC(O)c1cc(-c2ccc(Cl)cc2)nc2c(C)cc(C)cc12 (stereo not drawn) | 3.9 |
| CCCCCCCN(CCCCCCC)CC(O)c1cc2ccc(Cl)cc2c2cc(Cl)ccc12 (stereo not drawn) | 3.12 |
| CCCCN(CCCC)CC(O)c1c(C)c(-c2ccc(C)cc2C)nc2c1cc(Cl)c1ccccc12 (stereo not drawn) | 3.05 |

| SMILES | log(1/C) |
| --- | --- |
| CCCCCCN(CCCCCC)CC(O)c1cc(-c2ccc(OC)cc2)nc2cc(Cl)c(OC)cc12 (stereo not drawn) | 3.38 |
| Cc1ccc2cc(C(O)CC3CCCCN3)c3ccc(C(F)(F)F)cc3c2c1 (stereo not drawn) | 3.16 |
| OC(CNC12CC3CC(CC(C3)C1)C2)c1cc(-c2ccc(Cl)cc2)nc2cc(Cl)ccc12 (stereo not drawn) | 3.24 |
| CCCCN(CCCC)CC(O)c1cc(-c2ccc(Cl)cc2)nc2cc(I)ccc12 (stereo not drawn) | 3.43 |
| CCCCN(CCCC)CC(O)c1cc2c(Cl)c(Cl)ccc2c2cc(Cl)c(Cl)cc12 (stereo not drawn) | 3.34 |
| CCCCCCCN(CCCCCCC)CC(O)c1c(Br)c2ccccc2c2ccccc12 (stereo not drawn) | 3.33 |
| CC(C)(C)NCC(O)c1cc2ccc(Br)cc2c2cc(Br)ccc12 (stereo not drawn) | 3.61 |
| CCCCCCCN(CCCCCCC)CC(O)c1cccc2ccc3ccccc3c12 (stereo not drawn) | 2.19 |
| CCCCN(CCCC)CC(O)c1cccc2c1ccc1ccccc12 (stereo not drawn) | 2.06 |
| OC(CC1CCCCN1)c1ccnc2c(C(F)(F)F)cccc12 (stereo not drawn) | 2.75 |
| CN1CCCC1CC(O)c1cc2ccc(Cl)cc2c2cc(Cl)ccc12 (stereo not drawn) | 3.46 |
| OC(CN1CCCCC1)c1cc(-c2ccccc2)nc2c(Cl)cc(Cl)cc12 (stereo not drawn) | 3.17 |
| CCCCCCCCN(CCCCCCCC)CC(O)c1cc2ccccc2c2ccccc12 (stereo not drawn) | 2.54 |
| OC(CC1CCCCN1)c1cc(-c2ccccc2)nc2cc(Cl)ccc12 (stereo not drawn) | 2.72 |
| CCCCCCCN(CCCCCCC)CC(O)c1cc2ccc(C(F)(F)F)cc2c2sccc12 (stereo not drawn) | 3.36 |
| OC(CC1CCCCN1)c1cc(Oc2ccc(Cl)cc2)nc2ccccc12 (stereo not drawn) | 2.68 |
| CCCCN(CCC)CC(O)c1ccc2cc3ccccc3cc2c1 (stereo not drawn) | 2.49 |
| CCCN(CCC)CCC(O)c1cc2ccc(C(F)(F)F)cc2c2cc(C(F)(F)F)ccc12 (stereo not drawn) | 4.23 |
| CCCCCCCN(CCCCCCC)CC(O)c1c(OC)c2cc(Cl)ccc2c2ccc(Cl)cc12 (stereo not drawn) | 3.34 |
| OC(CC1CCCCN1)c1cc2cc(C(F)(F)F)cc(C(F)(F)F)c2c2cc(C(F)(F)F)ccc12 (stereo not drawn) | 4.47 |
| CCCCN(CCCC)CC(O)c1cccc2cc3c(Cl)cccc3cc12 (stereo not drawn) | 2.1 |
| CCCCN(CCCC)CC(O)c1cc(C(=O)c2ccccc2)nc2c(Cl)cc(Cl)cc12 (stereo not drawn) | 3.03 |
| CCCCN(CCCC)CCC(O)c1cc(C(F)(F)F)nc2ccc(C(F)(F)F)cc12 (stereo not drawn) | 3.31 |
| CCCCN(CCCC)CC(O)c1cc2c(Br)cccc2c2cc(Br)ccc12 (stereo not drawn) | 2.9 |
| OC(CNC1CCC1)c1cc(-c2ccc(C(F)(F)F)cc2)nc(-c2ccc(C(F)(F)F)cc2)c1 (stereo not drawn) | 3.85 |

| SMILES | log(1/C) |
| --- | --- |
| CCCCN(CCCC)CC(O)c1cccc2cc3ccccc3cc12 (stereo not drawn) | 2.27 |
| CCCCCCCN(CCCCCCC)CC(O)c1cc2ccccc2c2c(Cl)cccc12 (stereo not drawn) | 3.09 |
| CCCCN(CCCC)CC(O)c1cc2ccsc2c2cc(Br)ccc12 (stereo not drawn) | 3.37 |
| OC(CC1CCCCN1)c1cc2c(Cl)cc(Cl)cc2c2cc(C(F)(F)F)ccc12 (stereo not drawn) | 4.1 |
| OC(CN1CCCCC1)c1cc(-c2ccc(F)cc2)nc2cc(F)ccc12 (stereo not drawn) | 2.45 |
| CCCCN(CCCC)CC(O)c1cc(-c2ccc(Cl)cc2)nc2c(C(F)(F)F)cc(Cl)cc12 (stereo not drawn) | 4.61 |
| CCCCN(CCCC)CC(O)c1cc(-c2ccc(Cl)cc2)nc2cc(C(F)(F)F)ccc12 (stereo not drawn) | 4.14 |
| CCCCCCCN(CCCCCCC)CC(O)c1cc2cccnc2c2ccccc12 (stereo not drawn) | 2.9 |
| CCCCN(CCCC)CC(O)c1cc(C(C)(C)C)nc2ccc(C)cc12 (stereo not drawn) | 2.53 |
| CCCCCCCN(CCCCCCC)CC(O)c1cc2ccsc2c2cc(C(F)(F)F)ccc12 (stereo not drawn) | 2.77 |
| CCCCN(CCCC)CC(O)c1c(OC)c(-c2ccc(Cl)cc2)nc2c(C)cc(C)cc12 (stereo not drawn) | 3.26 |
| CCCCN(CCCC)CC(O)c1cc(-c2ccc(Cl)cc2)nc2ccc(F)cc12 (stereo not drawn) | 3.11 |
| OC(CC1CCCCN1)c1cc(-c2ccc(Cl)cc2)nc2c(C(F)(F)F)cccc12 (stereo not drawn) | 4.45 |
| OC(Cc1ccc2ccccc2n1)c1cc2ccc(C(F)(F)F)cc2c2cc(C(F)(F)F)ccc12 (stereo not drawn) | 4.11 |
| OC(CC1CCCCN1)c1cc2ccc(C(F)(F)F)cc2c2ccc(Cl)cc12 (stereo not drawn) | 4.12 |
| OC(CC1CCCCN1)c1cc2ccccc2c2c(Cl)cc(Cl)cc12 (stereo not drawn) | 3.52 |
| CCCCCCN(CCCCCC)CCC(O)c1cc2c(O)cccc2c2ccccc12 (stereo not drawn) | 2.52 |
| CNCC(O)c1cc2ccc(C(F)(F)F)cc2c2cc(C(F)(F)F)ccc12 (stereo not drawn) | 4.23 |
| CCCC(C)NCC(O)c1cc(-c2ccc(C(F)(F)F)cc2)nc(-c2ccc(C(F)(F)F)cc2)c1 (stereo not drawn) | 4.44 |
| CCCCCCCN(CCCCCCC)CC(O)c1cc2ccc(Br)cc2c2cc(Br)ccc12 (stereo not drawn) | 3.45 |
| OC(CC1CCCCN1)C1CC(c2ccccc2)=Nc2c(Cl)cc(Cl)cc21 (stereo not drawn) | 2.71 |
| CCC(CC)NCC(O)c1cc(-c2ccc(C(F)(F)F)cc2)nc(C(F)(F)F)c1 (stereo not drawn) | 3.28 |
| CCCCCCCN(CCCCCCC)CC(O)c1c2ccccc2cc2ccccc12 (stereo not drawn) | 3.07 |
| OC(CNC1CCCCC1)c1cc(-c2ccc(C(F)(F)F)cc2)nc(-c2ccc(C(F)(F)F)cc2)c1 (stereo not drawn) | 4.17 |
| OC(CCC1CCCCN1)c1cc2ccc(Cl)cc2c2cc(Cl)ccc12 (stereo not drawn) | 3.89 |

| SMILES | log(1/C) |
| --- | --- |
| OC(CC1CCCCN1)c1cc2ccc(C(F)(F)F)cc2c2cc(Cl)c(Cl)cc12 (stereo not drawn) | 4.02 |
| CCCCN(CCCC)CC(O)c1cc(-c2ccc(C(F)(F)F)cc2)nc(-c2ccc(C(F)(F)F)cc2)c1.O=C(O)CCC(=O)O (stereo not drawn) | 4.23 |
| CCCCCCCN(CCCCCCC)CC(O)c1cc2cc(Cl)ccc2c2ccccc12 (stereo not drawn) | 3.09 |
| CCCCN(CCCC)CC(O)c1cc(Oc2cccc(C(C)(F)F)c2)nc2c(Cl)cc(Cl)cc12 (stereo not drawn) | 2.76 |
| CCCCCCN(CCCCCC)CC(O)c1cc2ccccc2c2ccccc12 (stereo not drawn) | 2.4 |
| CC[C@H]1CN2CC[C@H]1C[C@H]2[C@H](O)c1ccnc2ccc(OC)cc12 [HYDROQUININE] | 2.04 |
| CCCCN(CCCC)C(C)CC(O)c1cc(-c2ccc(Cl)cc2)nc2c(C)cc(C)cc12 (stereo not drawn) | 2.42 |
| CCN(CC)CC(O)c1cc(-c2ccc(Cl)cc2)nc(-c2ccc(Cl)cc2)c1 (stereo not drawn) | 3.19 |
| CCCCCCN(CCCCCC)CC(O)c1cc2ccc(Br)cc2c2cc(Br)ccc12 (stereo not drawn) | 3.51 |
| CCCCCCN(CCCCCC)CC(O)c1cccc2c1cc(Br)c1ccccc12 (stereo not drawn) | 2.77 |
| CCCCN(CCCC)CC(O)c1cc2cc(Br)ccc2c2cc(C(F)(F)F)ccc12 (stereo not drawn) | 4.07 |
| CCCCN(CCCC)CC(O)c1cc2sccc2c2ccsc12 (stereo not drawn) | 2.1 |
| CCCCNCCC(O)c1cc2c(Cl)cc(Cl)cc2c2cc(C(F)(F)F)ccc12 (stereo not drawn) | 4.62 |
| CCCCN(CCCC)CC(O)c1cc(Cl)c2nc(-c3ccccc3)ccc2c1 (stereo not drawn) | 2.51 |
| CCCCN(CCCC)CC(O)c1cc(Oc2ccc(Cl)c(Cl)c2)cc2c(Cl)cc(Cl)cc12 (stereo not drawn) | 2.49 |
| OC(CC1CCCCN1)c1cc2ccccc2c2ccc(C(F)(F)F)cc12 (stereo not drawn) | 3.22 |
| CCCCCCCN(CCCCCCC)CC(O)c1cc2ccccc2c2cc(Cl)ccc12 (stereo not drawn) | 2.59 |
| CCCCCCCN(CCCCCCC)CC(O)c1cc2ccsc2c2cc(Br)ccc12 (stereo not drawn) | 2.68 |
| FC(F)(F)c1cc(C2CCCCN2)c2ccc3ccccc3c2n1.OC(CC1CCCCN1)c1cc(C(F)(F)F)nc2c1ccc1ccccc12 (stereo not drawn) | 3.44 |
| CCCCCCCN(CCCCCCC)CC(O)c1cc2ccc(Cl)cc2c2ccccc12 (stereo not drawn) | 2.44 |
| CCCCCCCN(CCCCCCC)CC(O)c1cccc2c1cc(Cl)c1cc(Cl)c(Cl)cc12 (stereo not drawn) | 2.71 |
| OC(CNC12CC3CC(CC(C3)C1)C2)c1cc(-c2ccc(Cl)cc2)nc2c(Cl)cc(Cl)cc12 (stereo not drawn) | 3.59 |
| CCCC(CCC)NCC(O)c1cc(-c2ccc(C(F)(F)F)cc2)nc(-c2ccc(C(F)(F)F)cc2)c1 (stereo not drawn) | 4.35 |
